{
  "source": "PubChem BioAssay (NCI)",
  "note": "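Method: 48-hour compound exposure of cells in 96-well plates, five concentrations, linear interpolation of endpoints. TGI denotes the concentration required for complete inhibition of growth.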",
  "data": [
    {"tested_on": "HCT-15 colon", "assay": "DTP human tumour cell line panel, 48 h", "units": {"TGI": "µM"}, "values": [
      {"smiles": "CCN(CC)C(=O)Cn1c(C)cc2ccccc21", "TGI": "> 100"},
      {"smiles": "CC1(C)NC2C(=O)c3c([nH]c4ccccc34)[C@]3(C)CCC1CC23", "note": "(some centres not stated)", "TGI": "> 100"},
      {"smiles": "COc1ccc2ccccc2c1/C=C/C(=O)c1ccccc1", "TGI": "> 35.8"},
      {"smiles": "C[C@]12CCC(=O)O[C@H]1CCCCO2", "TGI": "> 100"},
      {"smiles": "CC(C)=CCC/C(C)=C/C=C/C(C)=C/C=C/C(C)=C/C=C/C=C(C)/C=C/C=C(C)/C=C/[C@H]1C(C(C)(C)O)CC[C@]1(C)O", "note": "(some centres not stated)", "TGI": 51.8},
      {"smiles": "O=C1C(CN2CCCCC2)CCC1CN1CCCCC1", "note": "(configuration not stated)", "TGI": 47.4},
      {"smiles": "CC1=NNC(N)=N/C1=C\\C(Sc1ccc(Cl)cc1)c1ccc([N+](=O)[O-])cc1", "note": "(configuration not stated)", "TGI": "> 100"},
      {"smiles": "c1ccc2c(c1)ccn2CCc1c[nH]c2ccccc12", "TGI": "> 10"},
      {"smiles": "OCC(O)COCn1nncc1Cn1ncc2c(SCc3ccccc3)ncnc21", "note": "(configuration not stated)", "TGI": "> 100"},
      {"smiles": "O=C1CSC(c2cccc(Oc3ccccc3)c2)N1c1ccc(Cl)cc1", "note": "(configuration not stated)", "TGI": "> 100"},
      {"smiles": "Nc1nc(N)c2ncn(-c3ccc(Cl)cc3)c2n1", "TGI": "> 100"},
      {"smiles": "COc1cc(CNCc2cc(OC)c(OC)c(OC)c2)cc(OC)c1OC", "TGI": "> 10"},
      {"smiles": "Oc1c(CN2CCOCC2)ccc2cccnc12", "TGI": "> 10"},
      {"smiles": "O=Cc1ccc2c(c1)CC1(Cc3ccccc3C1)C2", "TGI": 73.4},
      {"smiles": "CCOCc1nc2c(OC)cc(-c3nc4ccc(N5CCN(C)CC5)cc4[nH]3)c(OC)c2[nH]1", "TGI": "> 100"},
      {"smiles": "O=C(N/N=C\\c1cccc2c([N+](=O)[O-])cccc12)Nc1ccccc1", "TGI": 25.5},
      {"smiles": "CC(=O)OCC12C(=O)C[C@@H](C)C3(CC(c4ccoc4)OC3=O)C1CCC(OC(C)=O)C21CO1", "note": "(some centres not stated)", "TGI": "> 100"},
      {"smiles": "CCCCN1C(=O)N(c2ccc(OCC)cc2)C2N(CCCC)C1C(C)(C)C2(C)C", "note": "(configuration not stated)", "TGI": "> 100"},
      {"smiles": "CON(C)C(=O)CNC(=O)OCC1c2ccccc2-c2ccccc21", "TGI": "> 100"},
      {"smiles": "O=C1/C(=N/O)Cc2c(Br)ccc(Br)c21", "TGI": "> 100"},
      {"smiles": "CSc1ncnc2c1ncn2C1CC(Oc2ccc(C)cc2)C(COc2ccc(C)cc2)O1", "note": "(configuration not stated)", "TGI": "> 100"},
      {"smiles": "O=C(O)Cc1cccc2c(=O)c3ccccc3oc12", "TGI": "> 100"},
      {"smiles": "CCOC(=O)N/N=C(/N)c1cccc([N+](=O)[O-])c1", "TGI": "> 100"},
      {"smiles": "COC1=C(OC)C(=O)C(Cc2c(C)nc3sc(C)cn23)=C(C)C1=O", "TGI": 96.4},
      {"smiles": "COc1cccc(-c2ccc3c4c2O[C@H]2C(=O)CC[C@@]5(O)[C@@H](C3)N(CC3CC3)CC[C@]425)c1", "TGI": 29.3},
      {"smiles": "O=C1/C(=C/c2ccc([N+](=O)[O-])cc2)C(=O)N(c2ccccc2)C1c1ccccc1", "note": "(configuration not stated)", "TGI": "> 10"},
      {"smiles": "Cc1cc(S(=O)(=O)N=C2N(Cc3ccccc3)CCN2Cc2ccccc2)c(S)cc1Cl", "TGI": "> 100"},
      {"smiles": "COCN(CCC1=CCCCC1)C(=O)OC", "TGI": "> 100"}
    ]},
    {"tested_on": "IGROV1 ovarian", "assay": "DTP human tumour cell line panel, 48 h", "units": {"TGI": "µM"}, "values": [
      {"smiles": "CCN(CC)C(=O)Cn1c(C)cc2ccccc21", "TGI": "> 100"},
      {"smiles": "CC1(C)NC2C(=O)c3c([nH]c4ccccc34)[C@]3(C)CCC1CC23", "note": "(some centres not stated)", "TGI": "> 100"},
      {"smiles": "COc1ccc2ccccc2c1/C=C/C(=O)c1ccccc1", "TGI": 16.2},
      {"smiles": "C[C@]12CCC(=O)O[C@H]1CCCCO2", "TGI": "> 100"},
      {"smiles": "CC(C)=CCC/C(C)=C/C=C/C(C)=C/C=C/C(C)=C/C=C/C=C(C)/C=C/C=C(C)/C=C/[C@H]1C(C(C)(C)O)CC[C@]1(C)O", "note": "(some centres not stated)", "TGI": 49.5},
      {"smiles": "O=C1C(CN2CCCCC2)CCC1CN1CCCCC1", "note": "(configuration not stated)", "TGI": 49.7},
      {"smiles": "CC1=NNC(N)=N/C1=C\\C(Sc1ccc(Cl)cc1)c1ccc([N+](=O)[O-])cc1", "note": "(configuration not stated)", "TGI": "> 100"},
      {"smiles": "c1ccc2c(c1)ccn2CCc1c[nH]c2ccccc12", "TGI": "> 10"},
      {"smiles": "OCC(O)COCn1nncc1Cn1ncc2c(SCc3ccccc3)ncnc21", "note": "(configuration not stated)", "TGI": "> 100"},
      {"smiles": "Nc1nc(N)c2ncn(-c3ccc(Cl)cc3)c2n1", "TGI": 96.3},
      {"smiles": "COc1cc(CNCc2cc(OC)c(OC)c(OC)c2)cc(OC)c1OC", "TGI": "> 10"},
      {"smiles": "Oc1c(CN2CCOCC2)ccc2cccnc12", "TGI": "> 10"},
      {"smiles": "O=Cc1ccc2c(c1)CC1(Cc3ccccc3C1)C2", "TGI": 46.1},
      {"smiles": "CCOCc1nc2c(OC)cc(-c3nc4ccc(N5CCN(C)CC5)cc4[nH]3)c(OC)c2[nH]1", "TGI": "> 100"},
      {"smiles": "O=C(N/N=C\\c1cccc2c([N+](=O)[O-])cccc12)Nc1ccccc1", "TGI": 40.1},
      {"smiles": "CC(=O)OCC12C(=O)C[C@@H](C)C3(CC(c4ccoc4)OC3=O)C1CCC(OC(C)=O)C21CO1", "note": "(some centres not stated)", "TGI": "> 100"},
      {"smiles": "CCCCN1C(=O)N(c2ccc(OCC)cc2)C2N(CCCC)C1C(C)(C)C2(C)C", "note": "(configuration not stated)", "TGI": "> 100"},
      {"smiles": "CON(C)C(=O)CNC(=O)OCC1c2ccccc2-c2ccccc21", "TGI": "> 100"},
      {"smiles": "O=C1/C(=N/O)Cc2c(Br)ccc(Br)c21", "TGI": "> 100"},
      {"smiles": "CSc1ncnc2c1ncn2C1CC(Oc2ccc(C)cc2)C(COc2ccc(C)cc2)O1", "note": "(configuration not stated)", "TGI": "> 100"},
      {"smiles": "O=C(O)Cc1cccc2c(=O)c3ccccc3oc12", "TGI": "> 100"},
      {"smiles": "CCOC(=O)N/N=C(/N)c1cccc([N+](=O)[O-])c1", "TGI": "> 100"},
      {"smiles": "COC1=C(OC)C(=O)C(Cc2c(C)nc3sc(C)cn23)=C(C)C1=O", "TGI": 32.2},
      {"smiles": "COc1cccc(-c2ccc3c4c2O[C@H]2C(=O)CC[C@@]5(O)[C@@H](C3)N(CC3CC3)CC[C@]425)c1", "TGI": 44.2},
      {"smiles": "O=C1/C(=C/c2ccc([N+](=O)[O-])cc2)C(=O)N(c2ccccc2)C1c1ccccc1", "note": "(configuration not stated)", "TGI": "> 10"},
      {"smiles": "Cc1cc(S(=O)(=O)N=C2N(Cc3ccccc3)CCN2Cc2ccccc2)c(S)cc1Cl", "TGI": "> 100"},
      {"smiles": "COCN(CCC1=CCCCC1)C(=O)OC", "TGI": "> 100"}
    ]},
    {"tested_on": "LOX IMVI melanoma", "assay": "DTP human tumour cell line panel, 48 h", "units": {"TGI": "µM"}, "values": [
      {"smiles": "CCN(CC)C(=O)Cn1c(C)cc2ccccc21", "TGI": "> 100"},
      {"smiles": "CC1(C)NC2C(=O)c3c([nH]c4ccccc34)[C@]3(C)CCC1CC23", "note": "(some centres not stated)", "TGI": "> 100"},
      {"smiles": "COc1ccc2ccccc2c1/C=C/C(=O)c1ccccc1", "TGI": 10.9},
      {"smiles": "C[C@]12CCC(=O)O[C@H]1CCCCO2", "TGI": "> 100"},
      {"smiles": "CC(C)=CCC/C(C)=C/C=C/C(C)=C/C=C/C(C)=C/C=C/C=C(C)/C=C/C=C(C)/C=C/[C@H]1C(C(C)(C)O)CC[C@]1(C)O", "note": "(some centres not stated)", "TGI": 68.3},
      {"smiles": "O=C1C(CN2CCCCC2)CCC1CN1CCCCC1", "note": "(configuration not stated)", "TGI": 31.7},
      {"smiles": "CC1=NNC(N)=N/C1=C\\C(Sc1ccc(Cl)cc1)c1ccc([N+](=O)[O-])cc1", "note": "(configuration not stated)", "TGI": "> 100"},
      {"smiles": "c1ccc2c(c1)ccn2CCc1c[nH]c2ccccc12", "TGI": "> 10"},
      {"smiles": "OCC(O)COCn1nncc1Cn1ncc2c(SCc3ccccc3)ncnc21", "note": "(configuration not stated)", "TGI": "> 100"},
      {"smiles": "O=C1CSC(c2cccc(Oc3ccccc3)c2)N1c1ccc(Cl)cc1", "note": "(configuration not stated)", "TGI": 50.9},
      {"smiles": "Nc1nc(N)c2ncn(-c3ccc(Cl)cc3)c2n1", "TGI": "> 100"},
      {"smiles": "COc1cc(CNCc2cc(OC)c(OC)c(OC)c2)cc(OC)c1OC", "TGI": "> 10"},
      {"smiles": "Oc1c(CN2CCOCC2)ccc2cccnc12", "TGI": "> 10"},
      {"smiles": "O=Cc1ccc2c(c1)CC1(Cc3ccccc3C1)C2", "TGI": 37.9},
      {"smiles": "CCOCc1nc2c(OC)cc(-c3nc4ccc(N5CCN(C)CC5)cc4[nH]3)c(OC)c2[nH]1", "TGI": 42.3},
      {"smiles": "O=C(N/N=C\\c1cccc2c([N+](=O)[O-])cccc12)Nc1ccccc1", "TGI": 25.4},
      {"smiles": "CC(=O)OCC12C(=O)C[C@@H](C)C3(CC(c4ccoc4)OC3=O)C1CCC(OC(C)=O)C21CO1", "note": "(some centres not stated)", "TGI": "> 100"},
      {"smiles": "CCCCN1C(=O)N(c2ccc(OCC)cc2)C2N(CCCC)C1C(C)(C)C2(C)C", "note": "(configuration not stated)", "TGI": "> 100"},
      {"smiles": "CON(C)C(=O)CNC(=O)OCC1c2ccccc2-c2ccccc21", "TGI": 53.1},
      {"smiles": "O=C1/C(=N/O)Cc2c(Br)ccc(Br)c21", "TGI": "> 100"},
      {"smiles": "CSc1ncnc2c1ncn2C1CC(Oc2ccc(C)cc2)C(COc2ccc(C)cc2)O1", "note": "(configuration not stated)", "TGI": "> 100"},
      {"smiles": "O=C(O)Cc1cccc2c(=O)c3ccccc3oc12", "TGI": "> 100"},
      {"smiles": "CCOC(=O)N/N=C(/N)c1cccc([N+](=O)[O-])c1", "TGI": "> 100"},
      {"smiles": "COC1=C(OC)C(=O)C(Cc2c(C)nc3sc(C)cn23)=C(C)C1=O", "TGI": 39.4},
      {"smiles": "COc1cccc(-c2ccc3c4c2O[C@H]2C(=O)CC[C@@]5(O)[C@@H](C3)N(CC3CC3)CC[C@]425)c1", "TGI": 30.9},
      {"smiles": "O=C1/C(=C/c2ccc([N+](=O)[O-])cc2)C(=O)N(c2ccccc2)C1c1ccccc1", "note": "(configuration not stated)", "TGI": "> 10"},
      {"smiles": "Cc1cc(S(=O)(=O)N=C2N(Cc3ccccc3)CCN2Cc2ccccc2)c(S)cc1Cl", "TGI": "> 100"}
    ]}
  ]
}
